Experiments:
Caspase7 = molecular target: T1, Caspase7 (Homo sapiens, UniProt P55210); assay: yeast 384 well β-galactosidase reporter assay, Caspase7; format: cell-based; details: Caspase7 in yeast, 384 well β-galactosidase activity assay
T1 construct: each full-length Caspase construct was expressed (for Caspases-1, 2, 3, 4, 5, 6, 7, and 9) at high levels; expressed in transfected cells; host or cells: Saccharomyces cerevisiae (EGY48)
T1 sequence (P55210 1-303): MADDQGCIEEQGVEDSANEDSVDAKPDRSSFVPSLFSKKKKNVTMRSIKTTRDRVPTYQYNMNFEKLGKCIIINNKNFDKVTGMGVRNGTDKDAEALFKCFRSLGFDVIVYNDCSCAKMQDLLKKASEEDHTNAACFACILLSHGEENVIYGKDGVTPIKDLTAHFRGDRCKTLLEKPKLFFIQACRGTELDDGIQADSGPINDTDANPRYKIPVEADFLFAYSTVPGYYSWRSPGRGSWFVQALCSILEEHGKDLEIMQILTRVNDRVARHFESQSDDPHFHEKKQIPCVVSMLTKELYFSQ
From the text: (§1) When converting the yeast-based protease reporter system to HTS assay, conditions from agar plates to liquid medium in microtiter wells must be revised. This revision comprises, utilizing the measured β-galactosidase produced by yeast carrying the Caspase-cleavable reporter proteins, and assaying the colorimetric product (OD620nm) derived from X-gal substrate in 384 well plates, as a measure of the lacZ reporter gene activity. We compared β-galactosidase activity produced in the presence or absence of the broad-spectrum caspase inhibitory compound, zVAD-fmk ([…]-Valinyl-Alaninyl-Aspartyl-fluoromethylketone). […] Note that it was determined that it is not advisible to employ glucose in yeast media because it represses the GAL1 promoter used in some plasmids. […]
(§2) Yeast expressing various Caspases alone (at high levels) or in combination with upstream activators (at low levels) and cleavable substrates containing appropriate tetrapeptides reorganized by these proteases were used in 384 well β-galactosidase activity assays to assess inhibition by zVAD-fmk. The compound was titrated into assays at various concentrations and percentage inhibition was determined.
(§3) Assays were performed in a total volume of […] in triplicate. […] Absorbance at 620 nm was measured 2-3 days after culture at 30° C.

Caspases = assay: validation of 384 well yeast-based Caspase-dependent lacZ reporter gene assays with pharmacological inhibitors; format: cell-based, human
From the text: When converting the yeast-based protease reporter system to HTS assay, conditions from agar plates to liquid medium in microtiter wells must be revised. This revision comprises, utilizing the measured β-galactosidase produced by yeast carrying the Caspase-cleavable reporter proteins, and assaying the colorimetric product (OD620nm) derived from X-gal substrate in 384 well plates, as a measure of the lacZ reporter gene activity. We compared β-galactosidase activity produced in the presence or absence of the broad-spectrum caspase inhibitory compound, zVAD-fmk ([…]-Valinyl-Alaninyl-Aspartyl-fluoromethylketone). Among the variables that were initially interrogated were initial seeding cell density, time of culture, concentration of X-gal substrate, and supporting carbohydrate (raffinose vs mannose). Note that it was determined that it is not advisible to employ glucose in yeast media because it represses the GAL1 promoter used in some plasmids. An example of data obtained using the plural-component system of Fas/FADD/Caspase-8 is presented. All variables tested altered the signal:noise ratio of the assay. […] For the two-component system of ASC/Caspase-1 and for the plural-component system of NALP1ΔLRR/ASC/Caspase-1, the same conditions were optimal, among those tested (not shown). For the Fas/Fadd/Caspase 8, the caspase and adaptor protein (Fadd) were expressed at relatively small amounts (a weak promoter and low copy number plasmid are used) and the upstream activator (Fas) was expressed in a large amount.
The 384 well assay format was further validated, using zVAD-fmk, a peptidyl inhibitor with broad-spectrum activity against animal Caspases. […]
The validation results of a yeast-based Caspase assay using a pharmacological inhibitor of Caspases are shown in FIG. 11 consisting of FIGS. 11A-C (A) Caspase-1, single-component assay. […] For (A-C), relative absorbance at 620 nm was measured (mean ±std dev; n=3-5 independent experiments). […]
as §3

Caspase1 = molecular target: T2, Caspase1 (Homo sapiens, UniProt P29466); assay: yeast 384 well β-galactosidase reporter assay, Caspase1 expressed alone; format: cell-based; details: Caspase1 in yeast, 384 well β-galactosidase activity assay
T2 construct: each full-length Caspase construct was expressed (for Caspases-1, 2, 3, 4, 5, 6, 7, and 9) at high levels; FLAG (C); HA (N); expressed in transfected cells; host or cells: Saccharomyces cerevisiae (EGY48)
T2 sequence (P29466 1-404): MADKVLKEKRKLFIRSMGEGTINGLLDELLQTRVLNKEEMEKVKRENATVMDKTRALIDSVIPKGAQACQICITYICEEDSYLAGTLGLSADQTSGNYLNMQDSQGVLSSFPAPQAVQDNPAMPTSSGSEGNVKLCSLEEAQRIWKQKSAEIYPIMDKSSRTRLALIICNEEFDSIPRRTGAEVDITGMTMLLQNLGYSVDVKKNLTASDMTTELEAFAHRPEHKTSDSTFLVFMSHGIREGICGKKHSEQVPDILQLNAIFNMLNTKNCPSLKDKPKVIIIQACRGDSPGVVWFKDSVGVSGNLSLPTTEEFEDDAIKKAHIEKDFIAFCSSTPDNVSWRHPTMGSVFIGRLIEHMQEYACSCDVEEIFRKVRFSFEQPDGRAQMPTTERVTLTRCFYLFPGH
From the text: as §1, §2, §3

benzoyl-Valinyl-Alaninyl-Aspartyl-fluoromethylketone [zVAD-fmk]
IC50 (Caspase7): 4.11 µM | effect on β-galactosidase activity / activation of the lacZ reporter gene (Caspases; 384 well yeast-based Caspase-dependent reporter gene assay): inhibited β-galactosidase activity in a dose-dependent fashion | IC50 (Caspases; range over the yeast-based Caspase assays, 384 well format, read-out: concentration required for achieving 50% inhibition of β-galactosidase activity): 1 to 10 µM | IC50 (Caspase1): 3.07 µM

Reference: patent publication US20100028892A1, “YEAST BASED EXPRESSION OF PROTEASES AND METHODS OF USE” (Burnham Institute for Medical Research, priority 2008, published 2010)
